The values that follow are results of earlier work, collected in patent publication US7291352B2 (HerbalScience LLC, priority 2001, dated 2007).

Molecules are shown by their SMILES.

The data set concerns gamma-aminobutyric acid (GABA) receptor uptake. The settings on record: in micromolar concentrations.

Consider `CN1CCC=C(C(=O)O)C1` [arecaidine], for which the “inhibition of GABA receptor uptake” value was “inhibit”.
Regarding `O=C(O)C1=CCCNC1` [guvacine], the “inhibition of GABA receptor uptake” value is listed as “inhibit”.
